From US20200345776A1, “CELL” (AUTOLUS LIMITED, priority 2017, published 2020)

How the values were obtained:
[1] = tested on: NCI-H460 non-small-cell lung cancer; details: cited from earlier work
MOLT-4 leukaemia = details: cited from earlier work
SKOV3 cells [2] = assay: Co-culture of violacein-producing SupT1 cells with SKOV3 cells, live cell imaging; type: cell-based, human; details: FIG. 12, co-culture
Description: The following day the indicated supT1 cells were added to the SKOV3 cells at density of 20,000 cells per well in a total volume of 200 ul cell culture medium. Cells were continuously monitored in a Incycute live cell imager and the number of viable SKOV3 cells enumerated every hour by counting the presence of red fluorescent nuclei.

[3] = tested on: KM12 colon-cancer cell lines; details: cited from earlier work
Adenosine A2AR receptor = Adenosine A2AR receptor (Homo sapiens, UniProt P29274); details: cited from earlier work
Sequence of Adenosine A2AR receptor (P29274 whole entry): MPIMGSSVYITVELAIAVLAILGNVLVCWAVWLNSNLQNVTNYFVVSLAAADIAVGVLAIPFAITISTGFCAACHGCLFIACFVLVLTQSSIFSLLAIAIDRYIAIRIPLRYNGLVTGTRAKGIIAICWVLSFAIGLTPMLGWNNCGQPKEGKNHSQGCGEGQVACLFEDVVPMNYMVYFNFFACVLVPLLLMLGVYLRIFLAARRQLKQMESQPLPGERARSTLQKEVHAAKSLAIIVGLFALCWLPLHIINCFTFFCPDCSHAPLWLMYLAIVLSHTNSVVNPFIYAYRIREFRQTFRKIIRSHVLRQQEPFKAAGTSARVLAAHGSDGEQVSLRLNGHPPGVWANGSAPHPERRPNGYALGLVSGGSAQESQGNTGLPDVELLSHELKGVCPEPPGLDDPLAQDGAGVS

SKOV3 cells [4] = details: positive control of cell killing/inhibition, 10 ug/ml; cited from earlier work
cancer cells = details: cited from earlier work

O=C1NC(c2c[nH]c3ccc(O)cc23)=C/C1=C1\C(=O)Nc2ccccc21 [Violacein]
Activity against NCI-H460 non-small-cell lung cancer [1]: has activity | Activity against MOLT-4 leukaemia (MOLT-4 leukaemia): has activity | Toxicity of violacein produced by SupT1 cells to SKOV3 tumour cells (SKOV3 cells [2]): toxic | Activity against KM12 colon-cancer cell lines [3]: has activity

Cn1c(=O)c2c(ncn2C)n(C)c1=O [Caffeine]
Action on Adenosine A2AR receptor expressed on T cells (Adenosine A2AR receptor): known antagonist

COc1cc([C@@H]2c3cc4c(cc3[C@@H](O[C@@H]3O[C@@H]5CO[C@@H](C)O[C@H]5[C@H](O)[C@H]3O)[C@H]3COC(=O)[C@H]23)OCO4)cc(OC)c1O [Etoposide]
Apoptosis of SKOV3 cells (SKOV3 cells [4]): induces the apoptosis

CC(C)=CCC/C(C)=C/CO [Geraniol]
Effect against cancer cells in vitro (cancer cells): anti-proliferative/pro-apoptotic effect
